Measurements: patent US11229709B2, “Dendrimer drug conjugates for sustained intra-articular delivery” (Massachusetts Institute of Technology, priority 2017, dated 2022)

Tests used:
[1] = test system: osteophytes; assay: Rat surgical osteoarthritis model ACLT+MMx, micro-computed tomography osteophyte volume; assay type: in vivo; conditions: single injection after surgery
Protocol: (§1) Skeletally mature male Sprague-Dawley rats of 12 weeks of age (350-400 g, Taconic) were injured by the Anterior Cruciate Ligament Transection and Partial Medial Meniscectomy (ACLT+pMMx) method to induce arthritis. […] Treatments were given by intra-articular injection into the affected joint 48 hours after surgery, using a joint concentration of 6 M IGF-1. Rats were sacrificed for analysis 30 days after surgery.
After fixation and before decalcification, excised rat joints were attached to the bore of a microCT scanner (GE eXplore CT 120) and scanned at 0.03° angles for a total of 1200 scans over a time period of 1.5 hours. Scans used an 80 kV x-ray potential, 32 mA current, and a 100 ms integration time. Image data sets were reconstructed into regions of interest encompassing single joints using Microview software (Parallax Innovations).
3D positioning data were used to quantify total volume of osteophytes (bone spurs) on each joint. 3D DICOM analysis software (Osirix MD) was used by a blinded investigator to re-section the images into a uniform frontal plane, perpendicular to an axis tangential to the femoral condyles and tibial plateau in the sagittal plane and an axis bisecting the femoral condyles and tibial plateau in the transverse plane. […] The sections were then reconstructed to 3D, and total osteophyte ROI volume was calculated for each rat. […]

[2] = test system: medial tibia cartilage degeneration; assay: Rat surgical osteoarthritis model ACLT+MMx, histological analysis; assay type: in vivo; set-up: mean area of degenerated medial tibial cartilage, % of total cartilage area: dose or concentration left out as unconfirmed; conditions: single intra-articular injection 48 hours after surgery
Protocol: as §1
Histological processing and analysis was performed according to the guidelines for rat surgical models by the Osteoarthritis Research Society International (OARSI) histopathology initiative (Gerwin et al, Osteoarthritis and Cartilage, 2010, Schmitz et al, Osteoarthritis and Cartilage 2010). Six 250 μm frontal step sections were taken from the central ˜1.5 mm of the joint and stained with Toluidine Blue/Fast Green. Aggrecan in healthy cartilage is stained blue (dark) and collagens in bone or degenerated cartilage are stained green (light). The section with the most severe medial tibia cartilage lesion was identified by a blinded investigator and used for all further analysis. Sections were scored quantitatively for degeneration in a blinded manner by histomorphometry techniques based on OARSI histopathology initiative guidelines.
Degenerated tissue was defined as >50% cell death and loss of toluidine blue staining. […]

[3] = Joint residence time after intra-articular injection (IVIS imaging); conditions: rats, calculated from half-life, dose injected and drug EC50
Text: Prior to injection, knee joints were shaved and disinfected with iodine scrub and 70% ethanol, 3 times. Rats were serially imaged at timepoints using a IVIS Spectrum (Perkin-Elmer) instrument at 640/680 nm. Images were quantified by drawing an anatomical Region of Interest (ROI) around the knee joint, applying to each image, and measuring radiant efficiency within the ROI on Living Image (Perkin-Elmer) software. Data for each treatment group was fit to a single exponential decay curve (FIG. 4C) with a terminal plateau assigned to all groups based on imaging an untreated rat.

insulin like growth factor 1 [IGF-1]
reduction of osteophyte burden versus untreated [1]: ~50%
mean total osteophyte volume (burden) ([1]; 30 days after surgery, microCT): 0.60 mm^3
mean width of cartilage degeneration at the cartilage surface (0% tissue depth) ([2]; 30 days after surgery): 1390 μm
mean area of degenerated medial tibial cartilage, % of total cartilage area ([2]; joint concentration of IGF-1, 30 days after surgery): 19.7%
time at relevant (therapeutic) doses in the joint [3]: 3 days
